Source: patent US6153589A, “2,3-epoxy alcohols, acids and derivatives as anti retroviral chemotherapeutic agents” (The United States of America as represented by the …, priority 1992, dated 2000)
Where two headings read alike, the source gives them in different places. Blank lines part the entries; values can stand above or below the compound they belong to.

Legend:
HIV-2 protease = experiment: HIV protease cleavage of nonapeptide (HPLC); assay type: biochemical; settings: 0.5 μl of 10 μg/μl inhibitor in DMSO per 10 μl reaction; pH 6.5, room temperature; pentapeptide product relative to DMSO control; sampled at ca. 16 and 40 hr (time not given)
Procedure: Activity Against HIV Protease
The assay for proteolyic activity is a modified version of that previously described by Copeland et al., Gene Anal. Tech., 5:109-115 (1988). For each assay to be performed 2 microliters of protease solution (ca. 100 ng) is added to 3 μg of nonapeptide (Val-Ser-Gln-Asn-Tyr-Pro-Ile-Val-Gln-NH2) in 8 μl of 200 mM sodium phosphate, 1 M NaCl, 5% glycerol, 0.25% Nonidet-40, at pH 6.5. This affords a stock solution containing 10 μl per number of reactions. This stock is aliquoted out in 10 μl portions to which 0.5 μl of DMSO (a control is run with each set of assays to compensate for minor experimental variations) or a DMSO solution containing 10 μg/μl of an inhibitor, i.e., any one of the compounds of the present invention, is added. The reactions were incubated at room temperature and 4 μl portions were removed at ca. 16 and 40 hr. intervals. HPLC analysis was performed on a 4.6×250 mm Lichrosorb RP-18 column eluted with a gradient of 0-40% acetonitrile in water (containing 0.05% TFA) over 30 min monitoring absorbance at 206 nm. Progress of the enzymatic cleavage was followed by monitoring the appearance of the pentapeptide (Val-Ser-Gln-Asn-Tyr-OH) cleavage product. The activity is expressed as the amount of the pentapeptide (Val-Ser-Gln-Asn-Tyr-OH) observed relative to the control reaction for that set of assays.
Inhibition of HIV-2 protease

porcine Renin = target: T1, porcine Renin (Sus scrofa, UniProt A0A287APG1); experiment: Porcine Renin cleavage of porcine tetradecapeptide (HPLC); assay type: biochemical; settings: 0.5 μl of 50 μg/μl inhibitor in DMSO in 50 μl; pH 6.00, room temperature, 70 min; relative to uninhibited control
T1 construct: purchased Sigma
T1 sequence (A0A287APG1 24-407): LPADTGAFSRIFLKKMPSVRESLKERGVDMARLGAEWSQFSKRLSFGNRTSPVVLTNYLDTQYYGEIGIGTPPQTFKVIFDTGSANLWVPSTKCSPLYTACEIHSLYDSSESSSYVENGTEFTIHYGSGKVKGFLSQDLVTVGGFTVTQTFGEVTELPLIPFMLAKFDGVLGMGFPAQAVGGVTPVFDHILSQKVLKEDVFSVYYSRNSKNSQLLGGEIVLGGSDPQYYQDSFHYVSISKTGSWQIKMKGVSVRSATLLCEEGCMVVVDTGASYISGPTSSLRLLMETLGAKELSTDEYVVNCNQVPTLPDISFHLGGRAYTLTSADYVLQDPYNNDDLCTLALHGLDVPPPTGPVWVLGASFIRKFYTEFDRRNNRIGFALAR
Source text: Renin Activity: Porcine Renin Cleavage of Porcine Tetradecapeptide
Proteolytic enzymes are ubiquitous in many living systems. Renin is an asparxyl protease found in mammals which is responsible for the regulation of blood pressure. Structural and functional similarities between Renin and retroviral proteases have been previously noted (Pearl, L. H., Taylor, W. R., (1987) Nature, 329, 351-354). Consequently, successful therapeutic inhibition of retroviral proteases depends on the ability of the inhibitor to inhibit the retroviral enzyme while having a greatly diminished effect on normally occurring enzymes like Renin. The failure to inhibit the desired enzyme selectively may have an adverse effect on normal biochemical functions. The similarity of Renin to retroviral proteases and its viral normal bodily function makes it an attractive system in which to examine inhibitory selectivity.
Renin activity was determined by a method similar to that described above for the HIV protease. A solution containing 0.37 m unit (0.5 μl of stock solution containing 0.75 m unit/μl) of porcine Renin (Sigma) was added to 5 μg of porcine angiotensinogen in 50 μl of 0.1 M citrate-phosphate buffer (pH 6.00) containing 0.25% NP-40. A DMSO solution containing the inhibitor (0.5 μl of a 50 μg/μl solution) was added and the reaction was allowed to incubate at room temperature for 70 min. The entire mixture was analyzed by HPLC chromatographic analysis was perforemd on a 4.6×250 mm Lichrosorb RP-18 column eluting with a gradient of 0-50% acetonitrile in 0.02 M KH2 Po4 (pH 4.7) over 30 min monitoring absorbance at 206 nm. Appearance of both the tetrapeptide and the decapeptide products may be monitored under these conditions. Enzyme activity is expressed as the amount of tetrapeptide produced relative to an uninhibited control, and are summarized in Table 3 below.

HIV1 IIIb = experiment: microbe, parasite or virus in culture; assay type: cell-based; settings: Human immunodeficiency virus 1, IIIB; for viability at 10 µg/mL: 10 ug/ml; for viability at 23 µg/mL: 23 ug/ml; for viability at 11.5 µg/mL: 11.5 ug/ml; for viability at 31.9 µg/mL: 31.9 ug/ml; for viability at 3.9 µg/mL: 3.9 ug/ml; for viability at 1 µg/mL: 1 ug/ml; for viability at 6.3 µg/mL: 6.3 ug/ml; for viability at 31.5 µg/mL: 31.5 ug/ml; for viability at 24.6 µg/mL: 24.6 ug/ml; for viability at 27.2 µg/mL: 27.2 ug/ml
Method in brief: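 Human host cells infected with HIV1 IIIb (virus-producing H9 cells or cell-free virus) and incubated seven days with compound. Viable cells measured by XTT formazan absorbance; response expressed as % of uninfected controls against virus kill %. Some cultures redosed after 3 days.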

[1] = 168 h, read-out: Antiviral Effect (viable cells as % of uninfected controls), run 15*, source V (cell free virus), virus kill 25.0%, culture redosed with compound after 3 days

Compound: O=[N+]([O-])c1ccc(OCC2CO2)cc1 (centres unmarked) [1,2-Epoxy-3-(p-nitrophenoxy)propane, reference compound]
Percent Control Cleavage of Nonapeptide HIV-1 Cleavage Site Fragment (HIV-2 protease): 18% | Percent control (tetrapeptide produced) (porcine Renin): 106%

Compound: CCCCCCCCC[C@H]1O[C@H]1CO [Example 11, (2S-cis)-3-Nonyloxirane Methanol]
Percent Control Cleavage of Nonapeptide HIV-1 Cleavage Site Fragment (HIV-2 protease): 85% | Percent control (tetrapeptide produced) (porcine Renin): 106% | viability at 10 µg/mL (HIV1 IIIb; 168 h, read-out: Antiviral Effect (viable cells as % of uninfected controls), run 8, source V (cell free virus), virus kill 25.0%): 110% | viability at 23 µg/mL (HIV1 IIIb; 168 h, read-out: Antiviral Effect (viable cells as % of uninfected controls), run 9, source V (cell free virus), virus kill 23.0%): 30% | viability at 11.5 µg/mL (HIV1 IIIb; 168 h, read-out: Antiviral Effect (viable cells as % of uninfected controls), run 10, source V (cell free virus), virus kill 49.0%): 68.5% | viability at 31.9 µg/mL (HIV1 IIIb; 168 h, read-out: Antiviral Effect (viable cells as % of uninfected controls), run 11, source V (cell free virus), virus kill 53.0%): 65.1% | viability at 11.5 µg/mL (HIV1 IIIb; 168 h, read-out: Antiviral Effect (viable cells as % of uninfected controls), run 12, source V (cell free virus), virus kill 30.0%): 80.4% | viability at 31.9 µg/mL (HIV1 IIIb; 168 h, read-out: Antiviral Effect (viable cells as % of uninfected controls), run 13, source V (cell free virus), virus kill 22.0%): 82.6% | viability at 3.9 µg/mL (HIV1 IIIb; 168 h, read-out: Antiviral Effect (viable cells as % of uninfected controls), run 14, source V (cell free virus), virus kill 20.0%): 21.5% | viability at 3.9 µg/mL (HIV1 IIIb; [1]): 32.4% | viability at 10 µg/mL (HIV1 IIIb; H9, 168 h, read-out: Antiviral Effect (viable cells as % of uninfected controls), run 1, source C (virus producing H9 cells), virus kill 6.0%): 60.2% | viability at 1 µg/mL (HIV1 IIIb; H9, 168 h, read-out: Antiviral Effect (viable cells as % of uninfected controls), run 2, source C (virus producing H9 cells), virus kill 25.0%): 37.5% | viability at 23 µg/mL (HIV1 IIIb; H9, 168 h, read-out: Antiviral Effect (viable cells as % of uninfected controls), run 3, source C (virus producing H9 cells), virus kill 14.0%): 19.9% | viability at 11.5 µg/mL (HIV1 IIIb; H9, 168 h, read-out: Antiviral Effect (viable cells as % of uninfected controls), run 4, source C (virus producing H9 cells), virus kill 12.5%): 18.1% | viability at 31.9 µg/mL (HIV1 IIIb; H9, 168 h, read-out: Antiviral Effect (viable cells as % of uninfected controls), run 5, source C (virus producing H9 cells), virus kill 13.0%): 23.9% | viability at 11.5 µg/mL (HIV1 IIIb; H9, 168 h, read-out: Antiviral Effect (viable cells as % of uninfected controls), run 6, source C (virus producing H9 cells), virus kill 9.0%): 12.3% | viability at 31.9 µg/mL (HIV1 IIIb; H9, 168 h, read-out: Antiviral Effect (viable cells as % of uninfected controls), run 7, source C (virus producing H9 cells), virus kill 11.0%): 13%

Percent control (tetrapeptide produced) (porcine Renin): 86%
Compound: CCCCCCCCC[C@H]1O[C@H]1C(=O)O [Example 21, (2R-cis)-3-Nonyloxiranecarboxylic Acid]
viability at 10 µg/mL (HIV1 IIIb; 168 h, read-out: Antiviral Effect (viable cells as % of uninfected controls), run 8, source V (cell free virus), virus kill 23.0%): 94% | viability at 6.3 µg/mL (HIV1 IIIb; 168 h, read-out: Antiviral Effect (viable cells as % of uninfected controls), run 9, source V (cell free virus), virus kill 19.0%): 25.7% | viability at 31.5 µg/mL (HIV1 IIIb; 168 h, read-out: Antiviral Effect (viable cells as % of uninfected controls), run 10, source V (cell free virus), virus kill 53.0%): 75.3% | viability at 24.6 µg/mL (HIV1 IIIb; 168 h, read-out: Antiviral Effect (viable cells as % of uninfected controls), run 11, source V (cell free virus), virus kill 57.0%): 64.3% | viability at 31.5 µg/mL (HIV1 IIIb; 168 h, read-out: Antiviral Effect (viable cells as % of uninfected controls), run 12, source V (cell free virus), virus kill 27.0%): 62% | viability at 24.6 µg/mL (HIV1 IIIb; 168 h, read-out: Antiviral Effect (viable cells as % of uninfected controls), run 13, source V (cell free virus), virus kill 40.0%): 88% | viability at 27.2 µg/mL (HIV1 IIIb; 168 h, read-out: Antiviral Effect (viable cells as % of uninfected controls), run 14, source V (cell free virus), virus kill 18.0%): 25.7% | viability at 27.2 µg/mL (HIV1 IIIb; [1]): 28.1% | viability at 1 µg/mL (HIV1 IIIb; H9, 168 h, read-out: Antiviral Effect (viable cells as % of uninfected controls), run 1, source C (virus producing H9 cells), virus kill 9.0%): 18.9% | viability at 10 µg/mL (HIV1 IIIb; H9, 168 h, read-out: Antiviral Effect (viable cells as % of uninfected controls), run 2, source C (virus producing H9 cells), virus kill 22.0%): 27.3% | viability at 6.3 µg/mL (HIV1 IIIb; H9, 168 h, read-out: Antiviral Effect (viable cells as % of uninfected controls), run 3, source C (virus producing H9 cells), virus kill 12.0%): 16.6% | viability at 31.5 µg/mL (HIV1 IIIb; H9, 168 h, read-out: Antiviral Effect (viable cells as % of uninfected controls), run 4, source C (virus producing H9 cells), virus kill 14.0%): 19.6% | viability at 24.6 µg/mL (HIV1 IIIb; H9, 168 h, read-out: Antiviral Effect (viable cells as % of uninfected controls), run 5, source C (virus producing H9 cells), virus kill 14.0%): 21.6% | viability at 31.5 µg/mL (HIV1 IIIb; H9, 168 h, read-out: Antiviral Effect (viable cells as % of uninfected controls), run 6, source C (virus producing H9 cells), virus kill 12.0%): 10.7% | viability at 24.6 µg/mL (HIV1 IIIb; H9, 168 h, read-out: Antiviral Effect (viable cells as % of uninfected controls), run 7, source C (virus producing H9 cells), virus kill 18.0%): 13%

Compound: CCCCCCCCC[C@@H]1O[C@H]1C(=O)O [Example 35, (2R-trans)-3-Nonyloxiranecarboxylic Acid]
Percent Control Cleavage of Nonapeptide HIV-1 Cleavage Site Fragment (HIV-2 protease): 77% | Percent control (tetrapeptide produced) (porcine Renin): 72%

Compound: CCCCCCCCC[C@H]1O[C@@H]1C(=O)O [Example 36, (2S-trans)-3-Nonyloxiranecarboxylic acid]
Percent Control Cleavage of Nonapeptide HIV-1 Cleavage Site Fragment (HIV-2 protease): 12% | Percent control (tetrapeptide produced) (porcine Renin): 12%

Compound: CCCCCCCCCCC[C@H]1O[C@@H]1C(=O)O [Example 40, (2S-trans)-3-Undecyloxiranecarboxylic Acid]
Percent Control Cleavage of Nonapeptide HIV-1 Cleavage Site Fragment (HIV-2 protease): 93% | Percent control (tetrapeptide produced) (porcine Renin): 71%
